Target: T1, Teth514_1788 (Thermoanaerobacter sp. X514, UniProt B0K2C2)
T1 construct: full-length, no signal peptide predicted, C-terminal His6-tag (pET24a) kept, E. coli Rosetta 2 (DE3); theoretical mass 33,997; homodimer
T1 sequence (B0K2C2 1-296): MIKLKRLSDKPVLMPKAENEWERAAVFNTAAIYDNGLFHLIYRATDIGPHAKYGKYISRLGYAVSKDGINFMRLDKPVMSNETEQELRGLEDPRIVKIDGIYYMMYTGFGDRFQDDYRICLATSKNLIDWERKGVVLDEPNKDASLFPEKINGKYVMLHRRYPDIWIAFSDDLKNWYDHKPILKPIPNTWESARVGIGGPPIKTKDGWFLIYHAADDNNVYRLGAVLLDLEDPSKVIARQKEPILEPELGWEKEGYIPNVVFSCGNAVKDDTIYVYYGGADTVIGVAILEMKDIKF
Experiment: colorimetric α-Man1P release, sequential Bi Bi fit
Format: biochemical
Conditions: kinetic constant K iA of substrate A, no inhibition constant; phosphorolysis; Pi 0.10-2.0 mM; 40 mM MES-NaOH pH 6.0; 30°C

SMILES | K iA [mM]
OC[C@H]1O[C@@H](O[C@@H]2C(O)O[C@H](CO)[C@@H](O)[C@@H]2O)[C@@H](O)[C@@H](O)[C@@H]1O (stereo partly drawn) [product 1, β-D-mannopyranosyl-(1→2)-D-mannose] | 0.63 ± 0.2
OC[C@H]1O[C@@H](O[C@@H]2[C@H](O[C@@H]3C(O)O[C@H](CO)[C@@H](O)[C@@H]3O)O[C@H](CO)[C@@H](O)[C@@H]2O)[C@@H](O)[C@@H](O)[C@@H]1O (stereo partly drawn) [product 2, β-D-mannopyranosyl-(1→2)-β-D-mannopyranosyl-(1→2)-D-mannose] | 2.1 ± 0.5
OC[C@H]1O[C@@H](O[C@@H]2[C@H](O[C@@H]3[C@H](O[C@@H]4C(O)O[C@H](CO)[C@@H](O)[C@@H]4O)O[C@H](CO)[C@@H](O)[C@@H]3O)O[C@H](CO)[C@@H](O)[C@@H]2O)[C@@H](O)[C@@H](O)[C@@H]1O (stereo partly drawn) [product 3, β-D-mannopyranosyl-(1→2)-β-D-mannopyranosyl-(1→2)-β-D-mannopyranosyl-(1→2)-D-mannose] | 1.9 ± 0.6

— article PMC4264767, “Discovery of Two β-1,2-Mannoside Phosphorylases Showing Different Chain-Length Specificities from Thermoanaerobacter sp. X-514” (PLoS ONE, 2014)
